Laboratory results as given in US9175058B2, “Soluble immune response suppressor polypeptides and treatment of multiple sclerosis and other autoimmune diseases” (THE BOARD OF REGENTS OF THE UNIVERSITY OF TEXAS SYSTEM, priority 2004, dated 2015).
No end group written: not given here.

Assays:
Type in all cases: in vivo, mouse
C57/BL6 mice = assay: Induction of acute EAE by active immunization with MOG peptide 35-55; design: dose or concentration left out as unconfirmed; settings: day 21, s.c. immunization with peptide in IFA, pertussis toxin, FIG. 1
SOCS-2 = assay: Quantitative PCR of SOCS-2 transcripts in spleen and spinal cord of SIRS peptide-fed EAE mice
Excerpt: (§1) Quantitative PCR can be performed for nominal EAE cytokine or transcript of interest. In particular, the mean measured transcript levels for IL-2/IFN-γ (Th1-like), IL-4/IL-10 (Th2-like) and other nominal biologic response modifiers of interest (e.g. TGF-β, IL-1, IL-6, IL-12, TNF-α) will be normalized to the b-actin control and expressed as % b-actin molecules.
(§2) Inflamed spinal cords from soluble immune response suppressor peptide-fed B6 mice (active treatment group) or from mock fed donor mice (control) were utilized for the experiments below. Intact spinal cord can be ejected by injecting saline into the distal end of the spinal canal and stored in RNALater (Ambion). The spinal cord is disrupted and the resulting cell suspension is filtered through a Falcon Cell Strainer 2350 (Becton Dickinson, San Jose, Calif.). Total RNA was processed on day 23-26 post active immunization, and relative numbers of transcripts for IFN-γ, IL-4, IL-10, SOCS-1, SOCS-2, and SOCS-3 were determined by quantitative PCR. The measured mean transcript levels were normalized to b-actin control (normalization mean=COI mean/b-actin×100) and expressed as % b-actin molecules.

SOCS-3 [1] = assay: Quantitative PCR of SOCS-3 transcripts in spleen and spinal cord of SIRS peptide-fed EAE mice; settings: for Splenic SOCS-3 transcript level normalized to b-actin: spleen, day 23-26 post active immunization
SOCS-1 [2] = assay: Quantitative PCR of SOCS-1 transcripts in spleen and spinal cord of SIRS peptide-fed EAE mice; settings: for SOCS-1 transcript level in CNS target tissue normalized to b-actin: spinal cord, day 23-26 post active immunization
Excerpt: as §1, §2

acute EAE in B6 mice [3] = assay: Ingested (gavaged) SIRS peptide 1-21 in acute EAE induced by MOG peptide 35-55
IL-4 = assay: Quantitative PCR of IL-4 transcripts in spleen and spinal cord of SIRS peptide-fed EAE mice; settings: for IL-4 transcript level in CNS target tissue normalized to b-actin: spinal cord, day 23-26 post active immunization
Excerpt: as §1, §2

EAE in B6 recipients = assay: Adoptive transfer of MOG-restimulated splenocytes from SIRS peptide-injected donors to B6 recipients; settings: recipients of 10×10^6 MOG-activated splenocytes i.p. from donors injected with 10 mg day −7 through day +14, FIG. 3
Procedure: B6 mice effector donors were actively immunized with myelin oligodendrocyte glycoprotein peptide 35-55 described above (day 0) and injected (day −7 through day +14 post-immunization) with 0.1 ml of control saline (n=8) or 10 mg of soluble immune response suppressor peptide 1-21 (n=8). On day 14 post inoculation, splenocytes from both saline-injected (mock control) and soluble immune response suppressor peptide-injected (active treatment) immunized donor mice were re-stimulated in vitro with […] myelin oligodendrocyte glycoprotein peptide 35-55 at 20×10^6 splenocytes for >1 hour and then diluted to 2-4 million cells/ml and cultured for 48-72 hours in RPMi with 10% FCS and 1% Pen/Strep. Myelin oligodendrocyte glycoprotein-restimulated cells were washed, counted and passively transferred (10×10^6) i.p. into 8-10 week old female B6 recipients.
The control group reached a maximum disease score of 2.1.

[4] = tested on: diabetes mellitus in NOD mice; assay: Ingested SIRS peptide 1-21 in spontaneous diabetes of NOD mice; settings: NOD female mice fed 100 μg daily from age ten weeks, FIG. 6 and FIG. 7
Procedure: NOD female mice (NOD MrkTacfBR) were obtained from Taconic Farms at eight weeks of age and feeding with mock (n=12) or 100 μg SIRS peptide 1-21 (n=6) in 0.1 ml DPBS daily was initiated at ten weeks. One hundred micrograms was used because this was an effective dose for inhibiting EAE (experimental autoimmune encephalomyelitis) in mice. The mice were maintained and fed under SPF conditions in microisolators, and handled under negative pressure sterile hoods. Surveillance mice were maintained with experimental mice and examined regularly for routine murine pathogens.
Mice were followed after initiation of feeding by weekly blood glucose determination (Life Scan One Touch II, Johnson & Johnson) beginning at week 18 thru 22. Animals were considered diabetic if two consecutive blood glucose determinations were above >11.1 mmol/l or >[…]. […]
Mock or SIRS peptide 1-21 was administered using a 2.5 cm syringe fitted with a 22-24 gauge ball point needle directly to the stomach and proximal small intestine (Thomas Scientific, Swedesboro, N.J.) daily to NOD mice beginning at age ten weeks. The peptide was directly delivered to the distal esophagus, stomach and proximal small intestine (as determined experimentally by injecting Evans blue during routine feeding and subsequent sacrifice). […]

acute EAE in B6 mice [5] = assay: Parenteral (injected) SIRS peptide 1-21 in acute EAE induced by MOG peptide 35-55; settings: day −7 through day 14 post immunization, n=8/group; for inhibition of EAE compared to placebo: FIG. 2
IFN-γ = assay: Quantitative PCR of IFN-γ transcripts in spleen and spinal cord of SIRS peptide-fed EAE mice
Excerpt: as §1, §2

SOCS-1 [6] = assay: Quantitative PCR of SOCS-1 transcripts in spleen and spinal cord of SIRS peptide-fed EAE mice; settings: for Splenic SOCS-1 transcript level normalized to b-actin: spleen, day 23-26 post active immunization
SOCS-3 [7] = assay: Quantitative PCR of SOCS-3 transcripts in spleen and spinal cord of SIRS peptide-fed EAE mice; settings: for SOCS-3 transcript level in CNS target tissue normalized to b-actin: spinal cord, day 23-26 post active immunization
Excerpt: as §1, §2

IL-10 = assay: Quantitative PCR of IL-10 transcripts in spleen and spinal cord of SIRS peptide-fed EAE mice
Excerpt: as §1, §2

[8] = splenic samples, data not shown
[9] = splenic samples from peptide-fed mice
[10] = CNS target organ (spinal cord) of peptide-fed mice

**Q.** “MEVGWYRSPFSRVVHLYRNGK [Synthetic peptide 35-55 from myelin oligodendrocyte glycoprotein, used to induce EAE]” was tested. Which “mean clinical score (scale 0-6)” value (C57/BL6 mice) did it give?
**A.** 3.44

**Q.** Which results are given for MTEENQQSSQPKTTINNAGDS?
**A.** difference in SOCS-2 compared to control (SOCS-2; cord samples): no significant differences; difference in SOCS-2 compared to control (SOCS-2; [8]): no significant difference; Splenic SOCS-3 transcript level normalized to b-actin (SOCS-3 [1]; fed 0.1 mg): 0.38 % b-actin molecules; Splenic SOCS-3 transcript level normalized to b-actin (SOCS-3 [1]; fed 1 mg): 0.28 % b-actin molecules; Splenic SOCS-3 transcript level normalized to b-actin (SOCS-3 [1]; fed 10 mg): 0.21 % b-actin molecules; Splenic SOCS-3 transcript level normalized to b-actin (SOCS-3 [1]; fed 100 mg): 0.18 % b-actin molecules; decrease in SOCS-3 compared to control (SOCS-3 [1]; [9]): 60%; increase in SOCS-1 expression (SOCS-1 [2]; [10]): 75-175 % of control; SOCS-1 transcript level in CNS target tissue normalized to b-actin (SOCS-1 [2]; fed 0.1 mg): 0.14 % b-actin molecules; SOCS-1 transcript level in CNS target tissue normalized to b-actin (SOCS-1 [2]; fed 1 mg): 0.19 % b-actin molecules; SOCS-1 transcript level in CNS target tissue normalized to b-actin (SOCS-1 [2]; fed 10 mg): 0.22 % b-actin molecules; SOCS-1 transcript level in CNS target tissue normalized to b-actin (SOCS-1 [2]; fed 100 mg): 0.14 % b-actin molecules; delay in the onset of disease compared to placebo (acute EAE in B6 mice [3]; 0.1 mg gavaged, FIG. 4): prolonged delay in the onset of disease; inhibition of EAE disease severity compared to placebo (acute EAE in B6 mice [3]; 0.1 mg gavaged, day −7 through day 14, n=4/group, FIG. 4): significant inhibition of disease severity; inhibition of EAE disease severity compared to placebo (acute EAE in B6 mice [3]; 0.1 mg gavaged, day −7 through day 14, n=4/group, FIG. 4, listed as soluble immune response suppressor peptide): significant inhibition; inhibition of EAE compared to placebo (acute EAE in B6 mice [3]; 0.1 mg gavaged, repeat experiment, n=4/group, FIG. 5): no significant inhibition; inhibition of EAE compared to placebo (acute EAE in B6 mice [3]; 1 mg gavaged, day −7 through day 14, n=4/group, FIG. 4): significant inhibition; delay in the onset of disease compared to placebo (acute EAE in B6 mice [3]; 1 mg gavaged, repeat experiment, FIG. 5): prolonged delay in the onset of disease; inhibition of disease severity compared to placebo (acute EAE in B6 mice [3]; 1 mg gavaged, repeat experiment, FIG. 5, p<0.038 Mann-Whitney): significant inhibition of disease severity; delay in the onset of disease compared to placebo (acute EAE in B6 mice [3]; 10 mg gavaged, FIG. 4): prolonged delay in the onset of disease; inhibition of disease severity compared to placebo (acute EAE in B6 mice [3]; 10 mg gavaged, day −7 through day 14, n=4/group, FIG. 4): significant inhibition of disease severity; delay in the onset of disease compared to placebo (acute EAE in B6 mice [3]; 100 mg gavaged, FIG. 4): prolonged delay in the onset of disease; inhibition of disease severity compared to placebo (acute EAE in B6 mice [3]; 100 mg gavaged, day −7 through day 14, n=4/group, FIG. 4): significant inhibition of disease severity; delay in the onset of disease compared to placebo (acute EAE in B6 mice [3]; 100 mg gavaged, repeat experiment, FIG. 5): prolonged delay in the onset of disease; inhibition of disease severity compared to placebo (acute EAE in B6 mice [3]; 100 mg gavaged, repeat experiment, FIG. 5, p<0.001): significant inhibition of disease severity; decrease in IL-4 expression (IL-4; [10]): up to 80%; IL-4 transcript level in CNS target tissue normalized to b-actin (IL-4; fed 0.1 mg): 0.04 % b-actin molecules; IL-4 transcript level in CNS target tissue normalized to b-actin (IL-4; fed 1 mg): 0.15 % b-actin molecules; IL-4 transcript level in CNS target tissue normalized to b-actin (IL-4; fed 10 mg): 0.05 % b-actin molecules; IL-4 transcript level in CNS target tissue normalized to b-actin (IL-4; fed 100 mg): 0.02 % b-actin molecules; difference in IL-4 compared to control (IL-4; [8]): no significant difference; clinical disease in recipients after passive transfer (EAE in B6 recipients): did not have any prolonged clinical disease; frequency of mice becoming diabetic compared to mock treated mice [4]: decreased frequency of mice becoming diabetic; onset of T1DM compared to mock treated mice [4]: significantly delayed onset of T1DM; inhibition of EAE compared to placebo (acute EAE in B6 mice [5]; 0.1 mg injected): no significant inhibition; inhibition of EAE compared to placebo (acute EAE in B6 mice [5]; 1 mg injected): no significant inhibition; inhibition of disease severity compared to placebo (acute EAE in B6 mice [5]; 10 mg injected (s.c.), FIG. 2, ρ<0.001): significant inhibition of disease severity; difference in IFN-γ compared to control (IFN-γ; cord samples): no significant differences; difference in IFN-γ compared to control (IFN-γ; [8]): no significant difference; Splenic SOCS-1 transcript level normalized to b-actin (SOCS-1 [6]; fed 0.1 mg): 0.28 % b-actin molecules; Splenic SOCS-1 transcript level normalized to b-actin (SOCS-1 [6]; fed 1 mg): 0.30 % b-actin molecules; Splenic SOCS-1 transcript level normalized to b-actin (SOCS-1 [6]; fed 10 mg): 0.23 % b-actin molecules; Splenic SOCS-1 transcript level normalized to b-actin (SOCS-1 [6]; fed 100 mg): 0.23 % b-actin molecules; decrease in SOCS-1 compared to control (SOCS-1 [6]; [9]): up to 30%; decrease in SOCS-3 (SOCS-3 [7]; [10]): 45%; SOCS-3 transcript level in CNS target tissue normalized to b-actin (SOCS-3 [7]; fed 0.1 mg): 0.45 % b-actin molecules; SOCS-3 transcript level in CNS target tissue normalized to b-actin (SOCS-3 [7]; fed 1 mg): 0.54 % b-actin molecules; SOCS-3 transcript level in CNS target tissue normalized to b-actin (SOCS-3 [7]; fed 10 mg): 0.28 % b-actin molecules; SOCS-3 transcript level in CNS target tissue normalized to b-actin (SOCS-3 [7]; fed 100 mg): 0.22 % b-actin molecules; difference in IL-10 compared to control (IL-10; cord samples): no significant differences; difference in IL-10 compared to control (IL-10; [8]): no significant difference
